One experiment concerns the target T1, Akt1 (Homo sapiens, UniProt P31749).
T1 construct: unspecified tag, removed (detagged) (cleaved yes); purchased SignalChem and Proteros (Akt1); Merck Millipore (PDK1) 14-452 (PDK1); none given for Akt1
Kind of experiment: Akt activation assay (PDK1-mediated activation, LANCE Ultra crosstide TR-FRET), Akt1. The format is biochemical. The following applies: read-out: Biological Assay 1 IC50 (nM) Akt1. How it is done: (§1) Biological Assay 1: Akt Activation Assay
(§2) Addition of a Europium-labelled antibody specific to the phosphopeptide allows energy transfer from the Europium donor to the Ultra Ulight™ acceptor if close enough in proximity.
(§3) Full length active His6-tagged PDK1 was obtained from Merck Millipore (14-452).
(§4) 1× assay buffer (AB): 50 mM HEPES pH 7.5, 1 mM EGTA, 10 mM MgCl2, 0.01% Tween. Immediately before use, DTT to a concentration of 2 mM was added.
(§5) To prepare lipid vesicles: 1 mg/ml PtdIns(3,4,5)P3 solution (in 10 mM HEPES 7.5) was added to 16.7 mg/ml DOPS/DOPC mixture (in 10 mM HEPES pH 7.5) in a ratio of 1:8.3. MilliQ water was added to the solution to generate concentrations of 400 μM DOPS, 400 μM DOPC and 40 μM PtdIns(3,4,5)P3. The mixture was subjected to 5× freeze/thaw cycles and aliquots stored at −20° C.
(§6) 5 μL enzyme in 1×AB was incubated with 2.5 μL test compound. To start the reaction 2.5 μL reaction mix was added which consisted of PDK1, lipid preparations, crosstide and ATP in 1×AB. Final assay concentrations were as follows: 1% DMSO, 5 nM SignalChem Akt1/15 nM SignalChem Akt2/3 nM Signalchem Akt3/5 nM Proteros Akt1/5 nM proteros Akt2/5 nM Proteros Akt3, 5 nM PDK1, 5.5 μM DOPS, 5.5 μM DOPC, 0.55 μM PtdIns(3,4,5)P3, 100 μM ATP, 100 nM LANCE® Ultra Ulight™-Crosstide. After 30 min, the reaction was stopped using 5 μL 40 μM EDTA in 1× Detection buffer for 5 min. For detection, 5 μL 8 nM LANCE® Ultra Europium-anti-phospho-Crosstide antibody in 1× Detection buffer was added to each well and incubated for 1 h. Plates read with the EnVision® Multilabel Plate Reader, excitation at 320 nm and emission at 665 nm and 615 nm. Compound IC50 was determined using a 4-parameter equation.

The target of the next experiment is T2, Akt2 (Homo sapiens, UniProt P31751).
T2 construct: unspecified tag, removed (detagged) (cleaved yes); purchased SignalChem and Proteros (Akt2); Merck Millipore (PDK1) 14-452 (PDK1); none given for Akt2
T2 sequence (P31751 whole entry): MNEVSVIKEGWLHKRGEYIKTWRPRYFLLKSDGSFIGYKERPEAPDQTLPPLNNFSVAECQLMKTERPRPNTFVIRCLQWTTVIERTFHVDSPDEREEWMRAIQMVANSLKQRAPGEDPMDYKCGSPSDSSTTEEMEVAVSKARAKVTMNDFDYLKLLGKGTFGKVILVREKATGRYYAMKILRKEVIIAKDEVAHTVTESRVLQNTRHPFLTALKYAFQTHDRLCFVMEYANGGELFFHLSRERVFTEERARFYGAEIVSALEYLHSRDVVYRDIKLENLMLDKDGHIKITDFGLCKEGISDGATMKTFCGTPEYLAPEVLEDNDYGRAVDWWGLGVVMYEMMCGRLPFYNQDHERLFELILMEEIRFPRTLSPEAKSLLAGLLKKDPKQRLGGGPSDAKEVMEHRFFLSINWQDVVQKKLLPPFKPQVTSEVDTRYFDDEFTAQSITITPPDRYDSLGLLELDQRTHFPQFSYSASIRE
Kind of experiment: Akt activation assay (PDK1-mediated activation, LANCE Ultra crosstide TR-FRET), Akt2. The format is biochemical. As to conditions: read-out: Biological Assay 1 IC50 (nM) Akt2. How it is done: as §1, §2, §3, §4, §5, §6

The target in another experiment is T3, Akt3 (Homo sapiens, UniProt Q9Y243).
T3 construct: unspecified tag, removed (detagged) (cleaved yes); purchased SignalChem and Proteros (Akt3); Merck Millipore (PDK1) 14-452 (PDK1); none given for Akt3
T3 sequence (Q9Y243 whole entry): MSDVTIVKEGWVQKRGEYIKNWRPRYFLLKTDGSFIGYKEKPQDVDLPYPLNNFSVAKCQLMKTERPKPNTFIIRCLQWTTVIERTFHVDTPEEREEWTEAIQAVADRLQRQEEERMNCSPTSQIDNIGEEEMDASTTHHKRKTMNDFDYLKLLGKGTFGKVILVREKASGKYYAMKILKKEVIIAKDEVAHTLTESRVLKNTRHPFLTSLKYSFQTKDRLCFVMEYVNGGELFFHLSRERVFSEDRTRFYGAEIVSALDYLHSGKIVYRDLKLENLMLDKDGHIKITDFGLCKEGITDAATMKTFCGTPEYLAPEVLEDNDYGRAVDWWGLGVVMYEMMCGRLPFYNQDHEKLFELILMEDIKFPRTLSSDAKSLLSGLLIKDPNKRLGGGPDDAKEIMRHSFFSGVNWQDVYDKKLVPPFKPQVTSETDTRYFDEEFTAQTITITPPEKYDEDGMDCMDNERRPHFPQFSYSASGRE
Briefly: Akt activation assay (PDK1-mediated activation, LANCE Ultra crosstide TR-FRET), Akt3. The format is biochemical. The following applies: read-out: Biological Assay 1 IC50 (nM) Akt3. The protocol:
as §1, §2, §3, §4, §5, §6

The target of the next experiment is T4, p-Akt2 in WM115 cells (Homo sapiens, UniProt P31751).
T4 construct: SureFire assays to detect cellular p-Akt1, p-Akt2 and p-Akt3 levels in WM115 cells (Akt2/3) and LNCaP cells (Akt1); endogenous in cells; host or cells: WM115 (ECACC 91061232), insulin-stimulated
T4 sequence (P31751 whole entry): as the sequence (P31751 whole entry) above
Briefly: Phospho-Akt cellular SureFire assay, p-Akt2 in WM115 cells. The format is cell-based. As to conditions: insulin stimulated, read-out: Biological Assay 2 IC50 (nM) Akt2 WM115. The source says: (§7) Biological Assay 2: Phospho-Akt (p-Akt) Cellular SureFire Assays
(§8) The following describes SureFire assays to detect cellular p-Akt1, p-Akt2 and p-Akt3 levels in WM115 cells (Akt2/3) and LNCaP cells (Akt1). In the case of Akt2 and Akt3, Streptavidin-coated donor beads capture a biotinylated anti-mouse antibody that in turn recognises a mouse total Akt antibody which is specific to each isoform. The protein A-conjugated acceptor beads capture an antibody that recognises the phosphoprotein. Similarly in the Akt1 kit, the donor and acceptor beads are used to capture each antibody pair consisting of an antibody that specifically recognises Akt1 as well as an antibody that recognises the phosphoprotein. In each case, close proximity of the beads allows energy transfer from donor to acceptor.
(§9) Custom kit from TGR/Perkin Elmer for Akt2/3 containing anti-(pThr308)Akt antibody and biotinylated anti-mouse capture antibody.
Total Akt2 antibody (NEB UK, 5239)
(§10) WM115 cells (ECACC, 91061232) cultured in MEM culture media (M2279) supplemented with 2 mM L-glutamine (G7513), 1% non-essential amino acids (M7145), 1% sodium pyruvate (S8636) and 10% FBS (F0804)
(§11) Cell treatment: 1×10^5 WM115 cells or 5×10^4 LNCaP cells were seeded into each well of a 96 well poly-D-Lysine coated tissue culture plate and incubated overnight at 37° C.+5% CO2. Media was removed from cells and replaced with assay buffer consisting of the full culture media described above but with 0.1% FBS instead of 10% FBS. Only WM115 cells were stimulated at 37° C.+5% CO2 for 10 min with 5 μL insulin at a final concentration of 100 nM. Cells were incubated with 5 μL of test compound at a final DMSO concentration of 0.3% for 15 min at 37° C.+5% CO2. Cell lysis was carried out according to kit instructions.
(§12) Assay format (performed in subdued lighting): 4 μL cell lysate and 5 μL reaction buffer were incubated together in the dark at room temperature for 2 h. Reaction buffer was supplemented with a 1/5 dilution of activation buffer, a 1/50 dilution of acceptor beads and in the case of the custom kits, antibodies were added at dilutions of 1/20,000 for Akt2 and 1/2,000 for Akt3.
(§13) 2 μL dilution buffer, supplemented with a 1/20 dilution of donor beads was added to each well and incubated for a further 2 h. Plates were read with the EnVision® Multilabel Plate Reader and using the AlphaScreen settings. Compound IC50 was determined using a 4-parameter equation.

The next experiment concerns the target T5, p-Akt3 in WM115 cells (Homo sapiens, UniProt Q9Y243).
T5 construct: SureFire assays to detect cellular p-Akt1, p-Akt2 and p-Akt3 levels in WM115 cells (Akt2/3) and LNCaP cells (Akt1); endogenous in cells; host or cells: WM115 (ECACC 91061232), insulin-stimulated
Briefly: Phospho-Akt cellular SureFire assay, p-Akt3 in WM115 cells. The following applies: insulin stimulated, read-out: Biological Assay 2 IC50 (nM) Akt3 WM115. The format is cell-based.
Source text: as §7, §8, §9
Total Akt3 antibody (R&D Systems MAB 1463)
as §10, §11, §12, §13

The source of these data is US10336702B2, “Pharmaceutically active compounds” (BERGENBIO ASA, priority 2015, dated 2019).

T5 sequence (Q9Y243 whole entry): as the sequence (Q9Y243 whole entry) above
T1 sequence (P31749 whole entry): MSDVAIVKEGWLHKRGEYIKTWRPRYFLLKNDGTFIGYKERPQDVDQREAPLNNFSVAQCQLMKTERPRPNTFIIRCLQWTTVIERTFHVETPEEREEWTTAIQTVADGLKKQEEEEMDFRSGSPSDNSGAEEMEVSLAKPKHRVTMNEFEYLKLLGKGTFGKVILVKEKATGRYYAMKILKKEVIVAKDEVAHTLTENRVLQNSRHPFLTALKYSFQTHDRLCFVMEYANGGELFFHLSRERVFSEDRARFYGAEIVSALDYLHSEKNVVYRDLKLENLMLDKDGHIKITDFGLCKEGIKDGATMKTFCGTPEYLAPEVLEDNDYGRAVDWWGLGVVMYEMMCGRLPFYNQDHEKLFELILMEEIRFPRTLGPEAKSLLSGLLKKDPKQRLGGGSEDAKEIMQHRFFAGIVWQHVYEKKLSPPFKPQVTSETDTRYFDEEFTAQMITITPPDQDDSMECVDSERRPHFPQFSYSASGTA

Take `CC(=O)N(C)[C@H]1CC[C@H](CC(=O)Nc2cnc(-c3ccc(C4(N)CC(F)(F)C4)cc3)c(-c3ccccc3)c2)CC1` [Example 5]: the IC50 at Akt1 stood at 3900 nM; at Akt2, 800 nM; on Akt3, 110 nM; at p-Akt2 in WM115 cells it was 3000 nM; at p-Akt3 in WM115 cells, 61 nM.

For the compound `CC(=O)N(C)[C@H]1CC[C@H](CC(=O)Nc2cnc(-c3ccc(C4(N)CC4)cc3)c(-c3ccccc3)c2)CC1` [Example 12, N-(6-(4-(1-aminocyclopropyl)phenyl)-5-phenylpyridin-3-yl)-2-(trans-4-(N-methylacetamido)cyclohexyl)acetamide], the half-inhibitory concentration (IC50) on Akt2 amounted to 1000 nM; at Akt3 it was 84 nM; on p-Akt2 in WM115 cells it was 2300 nM; on p-Akt3 in WM115 cells it was 220 nM.

Regarding `NC1(c2ccc(-c3ncc(NC(=O)C(F)C4CCN(S(=O)(=O)C5CC5)CC4)cc3-c3ccccc3)cc2)CCC1` (stereo not drawn) [Example 40, N-(6-(4-(1-aminocyclobutyl)phenyl)-5-phenylpyridin-3-yl)-2-(1-(cyclopropylsulfonyl)piperidin-4-yl)-2-fluoroacetamide], the IC50 at Akt1 was 9800 nM; on Akt2, 440 nM; on Akt3 it was 360 nM; at p-Akt2 in WM115 cells, 2900 nM; on p-Akt3 in WM115 cells it was 220 nM.

For the compound `CC(=O)N(C)[C@H]1CC[C@H](CC(=O)Nc2cc(-c3ccccc3)c(-c3ccc([C@]4(N)C[C@H](F)C4)cc3)nn2)CC1` [Example 46, N-(6-(4-(trans-1-amino-3-fluorocyclobutyl)phenyl)-5-phenylpyridazin-3-yl)-2-(trans-4-(N-methylacetamido)cyclohexyl)acetamide], the IC50 was 11000 nM at Akt1; 440 nM on Akt2; 100 nM at Akt3; 2600 nM at p-Akt2 in WM115 cells; 46 nM at p-Akt3 in WM115 cells.

Take `CC(=O)N(C(C)C)[C@H]1CC[C@H](CC(=O)Nc2cnc(-c3ccc(C4(N)CCC4)cc3)c(-c3ccccc3)c2)CC1` [Example 49, N-(6-(4-(1-aminocyclobutyl)phenyl)-5-phenylpyridin-3-yl)-2-(trans-4-(N-isopropylacetamido)cyclohexyl)acetamide]: the IC50 on Akt1 came out at 6900 nM; on Akt2, 530 nM; at Akt3 it was 280 nM; on p-Akt2 in WM115 cells, 2900 nM; on p-Akt3 in WM115 cells, 140 nM.

As for `COC(=O)N(C)[C@H]1CC[C@H](CC(=O)Nc2cc(-c3ccsc3)c(-c3ccc([C@]4(N)C[C@](C)(O)C4)cc3)cn2)CC1` [Example 89, Methyl (trans-4-(2-((5-(4-(trans-1-amino-3-hydroxy-3-methylcyclobutyl)phenyl)-4-(thiophen-3-yl)pyridin-2-yl)amino)-2-oxoethyl)cyclohexyl)(methyl)carbamate], the IC50 at p-Akt2 in WM115 cells stood at 3000 nM; at p-Akt3 in WM115 cells, 57 nM.

Take `CCC(=O)N(C)[C@H]1CC[C@H](CC(=O)Nc2cnc(-c3ccc(C4(N)CC4)c(F)c3)c(-c3ccccc3)c2)CC1` [Example 90, N-(trans-4-(2-((6-(4-(1-aminocyclopropyl)-3-fluorophenyl)-5-phenylpyridin-3-yl)amino)-2-oxoethyl)cyclohexyl)-N-methylpropionamide]: the IC50 at Akt2 is 2500 nM; on Akt3, 120 nM; on p-Akt2 in WM115 cells, 6500 nM; at p-Akt3 in WM115 cells it was 170 nM.

As to `CC(=O)N(C)[C@H]1CC[C@H](CC(=O)Nc2cc(-c3ccccc3F)c(-c3ccc([C@]4(N)C[C@](C)(O)C4)cc3)cn2)CC1` [Example 94, N-(5-(4-(trans-1-amino-3-hydroxy-3-methylcyclobutyl)phenyl)-4-(2-fluorophenyl)pyridin-2-yl)-2-(trans-4-(N-methylacetamido)cyclohexyl)acetamide], the IC50 on Akt1 stood at 20000 nM; at Akt2 it was 120 nM; on Akt3 it was 11 nM; on p-Akt2 in WM115 cells, 550 nM; on p-Akt3 in WM115 cells it was 13 nM.

As for `COC(=O)N(C)[C@H]1CC[C@H](CC(=O)Nc2cc(-c3ccccc3F)c(-c3ccc([C@]4(N)C[C@](C)(O)C4)cc3)cn2)CC1` [Example 96, Methyl (trans-4-(2-((5-(4-(trans-1-amino-3-hydroxy-3-methylcyclobutyl)phenyl)-4-(2-fluorophenyl)pyridin-2-yl)amino)-2-oxoethyl)cyclohexyl)(methyl)carbamate], the IC50 at Akt2 is 140 nM; on Akt3, 18 nM; on p-Akt2 in WM115 cells it was 1300 nM; at p-Akt3 in WM115 cells, 51 nM.

In the case of `CCN(C(C)=O)[C@H]1CC[C@H](CC(=O)Nc2cc(-c3ccccc3)c(-c3ccc([C@]4(N)C[C@](C)(O)C4)cc3)cn2)CC1` [Example 108, N-(5-(4-(trans-1-amino-3-hydroxy-3-methylcyclobutyl)phenyl)-4-phenylpyridin-2-yl)-2-(trans-4-(N-ethylacetamido)cyclohexyl)acetamide], the IC50 at Akt2 amounted to 220 nM; on Akt3 it was 10 nM; on p-Akt2 in WM115 cells it was 670 nM; on p-Akt3 in WM115 cells, 16 nM.

As for `COC(=O)N(C)C1CCC(CC(=O)Nc2cnc(-c3ccc(C4(N)CC(F)C4)cc3)c(-c3ccsc3)c2)CC1` (stereo not drawn) [Example A66, Methyl (trans-4-(2-((6-(4-(trans-1-amino-3-fluorocyclobutyl)phenyl)-5-(thiophen-3-yl)pyridin-3-yl)amino)-2-oxoethyl)cyclohexyl)(methyl)carbamate], the IC50 at Akt2 came to 1100 nM; on Akt3, 44 nM; on p-Akt2 in WM115 cells, 10000 nM; at p-Akt3 in WM115 cells it was 420 nM.

With `CC(=O)N(C)[C@H]1CC[C@H](CC(=O)Nc2cc(-c3ccsc3)c(-c3ccc(C4(N)CCC4)cc3)nn2)CC1` [Example A97, N-(6-(4-(1-aminocyclobutyl)phenyl)-5-(thiophen-3-yl)pyridazin-3-yl)-2-(trans-4-(N-methylacetamido)cyclohexyl)acetamide], the IC50 was 430 nM at Akt2, 9 nM at Akt3, 3200 nM at p-Akt2 in WM115 cells and 41 nM on p-Akt3 in WM115 cells.
